pEC50, pKd: −log10 of the molar value. Several values for one entry are separate records, joined by “and”; a condition that tells them apart may be missing. Equal values may be shown once. Read-outs that look alike come from different tables or passages of the source.
Assays:
SHIV-SF162P3 = assay: microbe, parasite or virus in culture; format: cell-based, SHIV (in rhesus macaque, Macaca mulatta, PBMCs)
Method: Freshly isolated PBMCs from three male rhesus macaque (M. mulatta) donors of Indian origin (HumanCells Biosciences) were cultured in RPMI-1640 cell culture medium (Life Technologies) supplemented with 10% heat-inactivated FBS (Hyclone), 2 mM glutamine and 100 U ml^−1 penicillin plus 100 μg ml^−1 streptomycin (complete RPMI). Before their use in the antiviral assays, rhesus PBMCs from three independent donors were pooled and activated at a density of 3 × 10^6 cells per ml for 72 h at 37 °C by the addition of 1 μg ml^–1 phytohemagglutinin (PHA, Sigma-Aldrich) and 50 U ml^−1 recombinant human interleukin-2 (IL-2) (Roche Diagnostics).
PHA/IL-2-stimulated rhesus PBMCs were infected in bulk culture with SHIV-SF162P3 at a concentration of 130 pg of p27 equivalent per million PBMCs. The cells were maintained in suspension by gently rocking the cultures mixed with virus inoculum for 3 h at 37 °C. The cells were then pelleted by centrifugation at 500g for 5 min, washed twice with complete RPMI to remove any unadsorbed virus and seeded into 96-well plates at a cell density of 2 × 10^5 cells per well in 100 μl. […] The cultures were incubated in a 5% CO2 incubator at 37 °C for 7 days. Cell-free supernatants derived from the PBMC cultures were harvested 7 days after infection, the amount of SHIV present was quantified using an SIV p27 antigen-capture ELISA assay (5436, Advanced Bioscience Laboratories) performed according to the manufacturer’s protocol, and the data were acquired using SoftMax Pro 6.3.1 software (Molecular Devices).

HIV capsid = details: ref Link et al, Nature, 2020;[16]; cited from earlier work
[1] = ref Link et al, Nature, 2020;[16]; cited from earlier work
CA monomer = details: ref Link et al, Nature, 2020;[16]; read-out: Binding Affinity (KD), CA monomer; cited from earlier work
[2] = target: CA precursor (Gag polyprotein); details: ref Link et al, Nature, 2020;[16]; read-out: Binding Affinity (KD), CA precursor (Gag polyprotein); cited from earlier work
CA mutant L56I = details: ref Link et al, Nature, 2020;[16]; cited from earlier work
[3] = ref Link et al, Nature, 2020;[16]; cited from earlier work; remark: listed apart in the source
CA mutant M66I = details: ref Link et al, Nature, 2020;[16]; cited from earlier work
HIV-1 isolates = details: ref Link et al, Nature, 2020;[16]; read-out: EC50, human PBMCs, HIV-1 isolates; cited from earlier work
HIV-1 = details: cited from earlier work; for average LEN plasma concentration as multiple of human paEC95: 9 days after dose administration
[4] = ref Link et al, Nature, 2020;[16], cited from earlier work
CA hexamer = details: ref Link et al, Nature, 2020;[16]; read-out: Binding Affinity (KD), CA hexamer; cited from earlier work
[5] = in vivo, sc; cited from earlier work
CA mutant N74D = details: ref Link et al, Nature, 2020;[16]; cited from earlier work
CA pentamer = details: ref Link et al, Nature, 2020;[16]; read-out: Binding Affinity (KD), CA pentamer; cited from earlier work
[6] = single experiments n1–n7, SIV p27 ELISA day 7, read-out: SHIV162P3-rhPBMC-EC50, individual experiments

Structure (SMILES): O=C(NCc1c(F)cc(F)cc1F)c1cn2c(c(O)c1=O)C(=O)N1[C@H]3CC[C@H](C3)O[C@@H]1C2 [BIC, reference compound]
- pEC50 (SHIV-SF162P3; mean of 7 assays, SIV p27 ELISA day 7 post-infection, read-out: EC50, rhesus PBMCs, SHIV-SF162P3): 8.87
- pEC50 (SHIV-SF162P3; [6]): 9.11 and 9.05 and 8.75 and 8.73 and 9.26 and 8.90 and 8.65

Structure (SMILES): CC(C)(C#Cc1ccc(-c2ccc(Cl)c3c(NS(C)(=O)=O)nn(CC(F)(F)F)c23)c([C@H](Cc2cc(F)cc(F)c2)NC(=O)Cn2nc(C(F)(F)F)c3c2C(F)(F)[C@@H]2C[C@H]32)n1)S(C)(=O)=O [LEN, Lenacapavir, reference compound]
- Inhibits nuclear import (early-stage) (HIV capsid): Yes
- Inhibits proper capsid assembly (late-stage) (HIV capsid): Yes
- Inhibits virus production (late-stage) (HIV capsid): Yes
- Predicted Hepatic Clearance, rate, primary human hepatocytes [1]: 0.17 mL/min/kg
- pKd (CA monomer): 8.60
- pKd [2]: 8.96
- In vitro fold-resistance (CA mutant/wild-type), L56I (CA mutant L56I): 239
- T1/2, human cryopreserved hepatocytes [3]: 202 h
- In vitro fold-resistance (CA mutant/wild-type), M66I (CA mutant M66I): >3,200
- pEC50 (HIV-1 isolates): 10.30
- average LEN plasma concentration as multiple of human paEC95 (HIV-1; 20 mg dose): 0.7 times the human paEC95
- average LEN plasma concentration as multiple of human paEC95 (HIV-1; 50 mg dose): 1.1 times the human paEC95
- participants with capsid mutation Q67H detected (HIV-1; long-acting LEN monotherapy, phase 1b): 2 of 29
- maximum decline in HIV-1 RNA (HIV-1; long-acting formulation, after 9 days of monotherapy): 2.3 log10
- Kinetic solubility at pH 2.0 ([4]; pH 2.0): <1, <1 μM
- Kinetic solubility at pH 7.4 ([4]; pH 7.4): <1, <1 μM
- pKd (CA hexamer): 9.62
- duration of mean exposure of more than six times human paEC95 [5]: at least 6 months
- pEC50 (SHIV-SF162P3; Simian immunodeficiency virus, PBMC, in Macaca mulatta, 168 h, read-out: EC50, rhesus PBMCs, SHIV-SF162P3, mean of 7 assays, SIV p27 ELISA day 7 post-infection): 9.41
- pEC50 (SHIV-SF162P3; read-out: SHIV162P3-rhPBMC-EC50, individual experiments, single experiments n1–n7, SIV p27 ELISA day 7): 9.43 and 9.59 and 9.31 and 9.57 and 9.16 and 9.37
- pEC50 (SHIV-SF162P3; [6]): 9.64
- In vitro fold-resistance (CA mutant/wild-type), N74D (CA mutant N74D): 22
- pKd (CA pentamer): 9.66

Reference: article PMC8753592, “Long-acting capsid inhibitor protects macaques from repeat SHIV challenges” (Nature, 2021)
